Paper PMC4483659, “Amino Acid-Derived Metabolites from the Ascidian Aplidium sp” (Marine Drugs, 2015)
pIC50: −log10 of the molar value. Values after ≈ are worked out from the molar mass of the structure shown. Read-outs that look alike come from different tables or passages of the source.

What was measured:
[1] = system: Staphylococcus aureus (ATCC 6538p); experiment: Antibacterial assay, S. aureus; format: cell-based; conditions: ATCC6538P, read-out: MIC, A: Staphylococcus aureus
Protocol: (§1) The cytotoxicity assays were performed in accordance with the literature protocols. The Na^+/K^+-ATPase, isocitrate lyase, and sortase A inhibition assays were performed according to previously described methods. The antimicrobial assays were performed according to the method described previously.

[2] = system: Salmonella typhimurium (ATCC 14028); experiment: Antibacterial assay, S. typhimurium; format: cell-based; conditions: Salmonella enterica, read-out: MIC, D: Salmonella typhimurium
Protocol: as §1

[3] = system: Micrococcus luteus (IFO 12708); experiment: Antibacterial assay, M. luteus; format: cell-based
Protocol: as §1

[4] = system: Escherichia coli (ATCC 35270); experiment: Antibacterial assay, E. coli; format: cell-based
Protocol: as §1

[5] = system: Bacillus subtilis (ATCC 6633); experiment: Antibacterial assay, B. subtilis; format: cell-based
Protocol: as §1

[6] = system: Proteus vulgaris (ATCC 3851); experiment: Antibacterial assay, P. vulgaris; format: cell-based
Protocol: as §1

sortase A = sortase A (Staphylococcus aureus, UniProt Q2FV99); experiment: Sortase A inhibition assay; format: biochemical
sortase A, sequence (Q2FV99 whole entry): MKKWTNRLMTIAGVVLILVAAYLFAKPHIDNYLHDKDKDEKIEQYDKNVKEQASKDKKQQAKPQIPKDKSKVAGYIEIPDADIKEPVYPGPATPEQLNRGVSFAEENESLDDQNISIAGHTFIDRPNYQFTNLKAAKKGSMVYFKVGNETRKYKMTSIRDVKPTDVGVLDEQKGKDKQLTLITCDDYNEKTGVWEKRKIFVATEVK
Protocol: as §1

Na^+/K^+-ATPase = experiment: Na+/K+-ATPase inhibition assay; format: biochemical; conditions: enzyme inhibition
Protocol: as §1

K562 leukemia cell-line = experiment: Cytotoxicity, K562 leukemia cell-line; format: cell-based; conditions: Homo sapiens
Protocol: as §1

[7] = system: MRC5 human lung fibroblast cell-line; experiment: Cytotoxicity, MRC5 normal cell-line; format: cell-based
Protocol: as §1

[8] = system: A549 lung cancer cell-line; experiment: Cytotoxicity, A549 lung cancer cell-line; format: cell-based; conditions: Homo sapiens
Protocol: as §1

[9] = IFO12708, Gram(+), IFO 12708, read-out: MIC, C: Micrococcus luteus
[10] = ATCC35270, Gram(−), ATCC 35270, read-out: MIC, F: Escherichia coli
[11] = ATCC6633, Gram(+), ATCC 6633, read-out: MIC, B: Bacillus subtilis
[12] = ATCC3851, Gram(−), ATCC 3851, read-out: MIC, E: Proteus vulgaris
[13] = K562 leukemia cell-line cytotoxicity, read-out: IC50, K562
[14] = MRC5 human lung fibroblast (normal) cell-line cytotoxicity, read-out: IC50, MRC5
[15] = A549 lung cancer cell-line cytotoxicity, read-out: IC50, A549

| Compound | MIC ([1]; Gram(+), ATCC 6538p) | MIC ([2]; Gram(−), ATCC 14028) | MIC [3, 9] | MIC [4, 10] | MIC [5, 11] | MIC [6, 12] | pIC50 (sortase A) | pIC50 (Na^+/K^+-ATPase) | pIC50 (K562 leukemia cell-line; [13]) | pIC50 [7, 14] | pIC50 [8, 15] | other results |
| --- | --- | --- | --- | --- | --- | --- | --- | --- | --- | --- | --- | --- |
| CC1(C)S[C@@H]2[C@H](NC(=O)[C@H](N)c3ccccc3)C(=O)N2[C@H]1C(=O)O [Ampicillin, reference compound] | 0.4 µg/mL (≈ 1.14 µM) | 0.4 µg/mL (≈ 1.14 µM) | 0.4 µg/mL (≈ 1.14 µM) | 6.3 µg/mL (≈ 18 µM) | 0.4 µg/mL (≈ 1.14 µM) | 0.8 µg/mL (≈ 2.29 µM) | – | – | – | – | – | – |
| CN[C@@H](Cc1cc(I)c(OC)c(I)c1)C(=O)NCCc1ccccc1 [Compound 1, apliamide A] | > 100 µg/mL | > 100 µg/mL | > 100 µg/mL | > 100 µg/mL | > 100 µg/mL | > 100 µg/mL | < 3.52 | 3.79 | 4.84 | 4.23 | < 4.00 | – |
| COc1c(I)cc(CCN(C)C)cc1I [Compound 6, apliamine A] | – | – | – | – | – | – | < 3.52 | 3.72 | – | – | – | MIC [1]: > 100 µg/mL; MIC [2]: > 100 µg/mL; pIC50 (K562 leukemia cell-line; K562, read-out: IC50, K562): 4.71; pIC50 ([7]; Homo sapiens, MRC5, read-out: IC50, MRC5): < 4.00; MIC ([3]; IFO12708, read-out: MIC, C: Micrococcus luteus): > 100 µg/mL; MIC ([4]; ATCC35270, read-out: MIC, F: Escherichia coli): > 100 µg/mL; MIC ([5]; ATCC6633, read-out: MIC, B: Bacillus subtilis): > 100 µg/mL; MIC ([6]; ATCC3851, read-out: MIC, E: Proteus vulgaris): > 100 µg/mL; pIC50 ([8]; A549, read-out: IC50, A549): 5.08 |
| CN(C)[C@@H](Cc1c[nH]c2cc(Br)ccc12)C(=O)NCCc1ccccc1 [Compound 5, apliamide E] | > 100 µg/mL | > 100 µg/mL | > 100 µg/mL | > 100 µg/mL | > 100 µg/mL | > 100 µg/mL | < 3.52 | < 3.70 | 5.11 | 4.43 | 4.64 | – |
| COc1c(I)cc(/C=C/C(=O)NCCc2ccccc2)cc1I [Compound 4, apliamide D] | > 100 µg/mL | > 100 µg/mL | > 100 µg/mL | > 100 µg/mL | > 100 µg/mL | > 100 µg/mL | < 3.52 | 5.49 | 4.74 | < 4.00 | < 4.00 | – |
| COc1c(I)cc(C[C@@H](C(=O)NCCc2ccccc2)N(C)C)cc1I [Compound 2, apliamide B] | > 100 µg/mL | > 100 µg/mL | > 100 µg/mL | > 100 µg/mL | > 100 µg/mL | > 100 µg/mL | < 3.52 | < 3.70 | 4.68 | 4.13 | 4.97 | – |
| COc1cccc2c1C(=O)c1c(O)c3c(c(O)c1C2=O)C[C@@](O)(C(=O)CO)C[C@@H]3O[C@H]1C[C@H](N)[C@H](O)[C@H](C)O1 [Doxorubicin, reference compound] | – | – | – | – | – | – | – | – | 5.92 | 5.01 | 5.85 | – |
| COc1ccc(CCNC(=O)[C@H](Cc2cc(I)c(OC)c(I)c2)N(C)C)cc1I [Compound 3, apliamide C] | > 100 µg/mL | > 100 µg/mL | > 100 µg/mL | > 100 µg/mL | > 100 µg/mL | > 100 µg/mL | < 3.52 | < 3.70 | 4.98 | < 4.00 | 4.87 | – |
| O=C(O)c1cc[c]([Hg][OH])cc1 [pHMB, para-Hydroxymercuribenzoic acid, reference compound] | – | – | – | – | – | – | – | – | – | – | – | pIC50 (sortase A; sortase A inhibition, read-out: IC50, Srt A): 3.96 |
